Key:
[1] = target: T1, Type-1 angiotensin II receptor (Homo sapiens, UniProt P30556)
T1 sequence (P30556 whole entry): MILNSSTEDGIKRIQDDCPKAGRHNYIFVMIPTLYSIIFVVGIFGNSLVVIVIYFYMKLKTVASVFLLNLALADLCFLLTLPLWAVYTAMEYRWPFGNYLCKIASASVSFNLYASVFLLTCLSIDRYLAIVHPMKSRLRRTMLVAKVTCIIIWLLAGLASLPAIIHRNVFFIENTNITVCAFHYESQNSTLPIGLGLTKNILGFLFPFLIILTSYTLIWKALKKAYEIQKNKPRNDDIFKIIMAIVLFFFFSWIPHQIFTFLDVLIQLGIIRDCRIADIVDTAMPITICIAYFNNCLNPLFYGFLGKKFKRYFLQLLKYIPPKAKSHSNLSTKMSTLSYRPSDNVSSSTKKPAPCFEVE

[2] = target: Type-2 angiotensin II receptor (Homo sapiens, UniProt P50052); format: functional
Type-2 angiotensin II receptor, sequence (P50052 whole entry): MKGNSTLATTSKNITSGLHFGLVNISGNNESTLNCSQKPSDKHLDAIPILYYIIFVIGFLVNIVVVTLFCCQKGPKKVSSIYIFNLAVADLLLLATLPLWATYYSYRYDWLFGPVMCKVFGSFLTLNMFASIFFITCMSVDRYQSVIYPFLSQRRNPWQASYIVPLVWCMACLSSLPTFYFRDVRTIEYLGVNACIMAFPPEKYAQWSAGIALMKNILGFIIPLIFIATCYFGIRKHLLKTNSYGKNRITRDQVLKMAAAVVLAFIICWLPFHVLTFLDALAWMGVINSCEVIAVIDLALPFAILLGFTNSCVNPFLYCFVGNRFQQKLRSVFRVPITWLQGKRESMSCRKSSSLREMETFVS

[3] = target: T2, Oxysterols receptor LXR-beta (Homo sapiens, UniProt P55055); format: functional
T2 sequence (P55055 whole entry): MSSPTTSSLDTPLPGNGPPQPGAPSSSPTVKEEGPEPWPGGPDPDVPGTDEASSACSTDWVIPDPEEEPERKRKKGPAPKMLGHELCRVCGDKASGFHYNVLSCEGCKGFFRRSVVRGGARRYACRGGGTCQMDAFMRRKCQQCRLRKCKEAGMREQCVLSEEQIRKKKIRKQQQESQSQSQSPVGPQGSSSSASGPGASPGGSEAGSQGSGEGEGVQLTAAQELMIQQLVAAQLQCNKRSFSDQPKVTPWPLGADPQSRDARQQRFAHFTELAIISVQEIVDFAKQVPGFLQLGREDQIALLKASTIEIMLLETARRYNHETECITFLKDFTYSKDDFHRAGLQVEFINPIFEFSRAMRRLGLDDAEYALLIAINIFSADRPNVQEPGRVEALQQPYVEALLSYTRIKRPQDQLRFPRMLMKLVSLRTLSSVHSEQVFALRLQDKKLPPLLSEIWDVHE

[4] = target: T3, Retinoic acid receptor beta (Homo sapiens, UniProt P10826); format: functional, cell-based
T3 sequence (P10826 whole entry): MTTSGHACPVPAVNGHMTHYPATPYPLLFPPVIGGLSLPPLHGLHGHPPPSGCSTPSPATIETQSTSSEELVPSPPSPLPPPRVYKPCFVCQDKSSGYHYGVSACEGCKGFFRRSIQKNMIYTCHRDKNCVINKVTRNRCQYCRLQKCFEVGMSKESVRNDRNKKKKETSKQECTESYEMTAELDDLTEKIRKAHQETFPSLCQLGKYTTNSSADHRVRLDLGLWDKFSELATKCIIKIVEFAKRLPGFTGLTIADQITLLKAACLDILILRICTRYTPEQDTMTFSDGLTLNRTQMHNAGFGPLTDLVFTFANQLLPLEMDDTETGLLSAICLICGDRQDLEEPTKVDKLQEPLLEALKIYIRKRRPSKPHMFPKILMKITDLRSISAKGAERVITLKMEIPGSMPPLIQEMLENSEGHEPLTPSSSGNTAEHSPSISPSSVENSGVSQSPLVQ

[5] = target: T4, Retinoic acid receptor alpha (Homo sapiens, UniProt P10276); format: functional, cell-based
T4 sequence (P10276 whole entry): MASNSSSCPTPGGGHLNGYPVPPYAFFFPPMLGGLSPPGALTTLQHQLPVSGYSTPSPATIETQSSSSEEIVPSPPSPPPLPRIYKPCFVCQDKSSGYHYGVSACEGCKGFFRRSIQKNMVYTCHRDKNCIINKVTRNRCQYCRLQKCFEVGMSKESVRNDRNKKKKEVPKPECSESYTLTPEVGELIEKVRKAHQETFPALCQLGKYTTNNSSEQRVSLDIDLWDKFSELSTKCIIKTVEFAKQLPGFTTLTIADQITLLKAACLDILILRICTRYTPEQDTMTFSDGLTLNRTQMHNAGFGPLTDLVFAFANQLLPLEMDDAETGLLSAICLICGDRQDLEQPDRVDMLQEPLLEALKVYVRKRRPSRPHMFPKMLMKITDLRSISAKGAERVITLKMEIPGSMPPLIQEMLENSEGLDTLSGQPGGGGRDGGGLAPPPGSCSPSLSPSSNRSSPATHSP

[6] = target: T5, Oxysterols receptor LXR-alpha (Homo sapiens, UniProt Q13133); format: functional
T5 sequence (Q13133 whole entry): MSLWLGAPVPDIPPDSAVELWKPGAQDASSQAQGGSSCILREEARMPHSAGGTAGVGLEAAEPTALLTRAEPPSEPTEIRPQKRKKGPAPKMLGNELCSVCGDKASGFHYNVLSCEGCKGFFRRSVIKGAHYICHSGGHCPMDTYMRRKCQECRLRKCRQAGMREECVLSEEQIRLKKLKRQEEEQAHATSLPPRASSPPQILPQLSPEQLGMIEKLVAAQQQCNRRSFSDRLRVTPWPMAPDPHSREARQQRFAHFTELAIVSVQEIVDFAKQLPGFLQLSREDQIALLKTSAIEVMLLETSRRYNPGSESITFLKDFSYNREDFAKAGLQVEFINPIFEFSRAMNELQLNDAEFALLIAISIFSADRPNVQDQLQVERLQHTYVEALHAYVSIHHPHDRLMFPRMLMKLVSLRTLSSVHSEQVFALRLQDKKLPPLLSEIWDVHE

[7] = target: T5, Oxysterols receptor LXR-alpha; format: functional; remark: listed apart in the source
Note: assay procedure not described here.

## CN1CCCC(n2nc(Cc3ccc(Cl)cc3)c3ccccc3c2=O)CC1 (configuration not stated) [AZELASTINE]
[1]
  AC50: > 100 µM

## CC(C)NCC(O)COc1ccc(COCCOC(C)C)cc1 (configuration not stated) [BISOPROLOL]
[2]
  AC50: > 100 µM

## COc1ccc2c(c1)C(=O)N(CCc1ccc(S(=O)(=O)NC(=O)NC3CCCCC3)cc1)C(=O)C2(C)C [GLIQUIDONE]
[3]
  AC50: 2700 nM
[4]
  AC50: > 30 µM
[5]
  AC50: > 30 µM
[6]
  AC50: 6.3 µM
[7]
  AC50: > 30 µM
